Source: patent US20090312423A1, “THERAPEUTIC TREATMENT FOR LUNG CONDITIONS” (Vanderbilt University, priority 2008, published 2009)

Columns and labels:
[1] = test system: chronically hypoxic piglets; assay: In vivo hemodynamics in newborn piglets exposed to 10 days of chronic hypoxia
Description: A total of 17 hypoxic and 17 control piglets were studied. Control animals were studied on the day of arrival from the farm at 12 days of age. The hypoxic pigs (2 days old) were placed in a normobaric hypoxic chamber for 10 to 11 days. Normobaric hypoxia was provided using compressed air and nitrogen to create inspired oxygen of 8-11% (PO2 60-72 Torr) and CO2 was maintained at 3-6 Torr by absorption with soda lime. The animals were monitored with daily weights and physical exam twice daily. They were fed ad lib with sow milk replacer from a feeding device in the cage.
Six of the seventeen hypoxic piglets were supplemented with oral L-citrulline starting on the first day of the hypoxic exposure. L-citrulline supplementation was provided at a dose of 0.13-gm/kilogram body weight twice a day using a syringe to deliver the dose orally. If it appeared to study personnel that the piglet had not ingested the majority of a dose, it was repeated. L-citrulline was mixed using a preparation (Sigma Pharmaceuticals, St. Louis, Mo., United States of America, 98% purity) at a concentration of 0.13 grams per milliliter of distilled water and when completely dissolved passing this solution through a 0.20 Micron filter.
In vivo hemodynamics were measured in 6 of the control piglets and all of the hypoxic piglets. […] Pulmonary artery pressure, left ventricular end diastolic pressure, and cardiac output were measured. Cardiac output was measured by a thermodilution technique (model 9520 thermodilution cardiac output computer, Edwards Laboratory, Irvine, Calif., United States of America) using a thermistor in the aortic arch and the left ventricle catheter as an injection port. Cardiac output was measured at end expiration as the mean of three injections of 3 ml of normal saline (0° C.). Exhaled NO was measured as described below. […]
Pulmonary vascular resistance was calculated from the in vivo hemodynamic measurements: (Pulmonary arterial pressure−left ventricular end diastolic pressure)÷(Cardiac output/body weight). […]

exhaled NO = assay: Exhaled nitric oxide measurement in anesthetized piglets; format: in vivo; conditions: FIG. 5; p-value 0.032; not different from control (p=0.124)
Method: In vivo hemodynamics were measured in 6 of the control piglets and all of the hypoxic piglets. For these measurements, the animals were weighed and then preanesthetized with Ketamine (15 mg/kg) and Acepromazine (2 mg/kg) intramuscularly. A tracheostomy, venous and arterial catheters, and thermistor were then placed as previously described using intravenous pentobarbital for sedation. Fike, C. D. et al., J Appl Physiol (2000) 88:1797-1803. Pulmonary artery pressure, left ventricular end diastolic pressure, and cardiac output were measured. Cardiac output was measured by a thermodilution technique (model 9520 thermodilution cardiac output computer, Edwards Laboratory, Irvine, Calif., United States of America) using a thermistor in the aortic arch and the left ventricle catheter as an injection port. Cardiac output was measured at end expiration as the mean of three injections of 3 ml of normal saline (0° C.). Exhaled NO was measured as described below. […]
For exhaled NO measurement in anesthetized animals, expiratory gas was sampled two to three times for 3 minute periods each and passed through a chemiluminescence analyzer (model 270B NOA; Sievers, Boulder, Colo., United States of America) to measure NO concentration as previously described. […] Exhaled NO production (nmol/min) was calculated using minute ventilation and the measured exhaled NO concentration.

nitrite/nitrate (NOx-) = assay: Isolated lung perfusion, perfusate NOx- measurement; format: in vivo, piglets; conditions: FIG. 6; p=0.04; no difference from normoxic controls
Method: The lungs were isolated and perfused in situ with a Krebs Ringer bicarbonate (KRB) solution containing 5% dextran, mol. wt. 70,000, at 37° C. and ventilated with a normoxic gas mixture (21% O2 and 5% CO2) as previously described. Fike, C. D. et al., J Appl Physiol (2000) 88:1797-1803. The lungs were perfused for 30-60 min until a stable pulmonary arterial pressure was achieved. Perfusate samples (1 ml) were then removed from the left atrial cannula every 10 min for a 60-minute period. The perfusate samples were centrifuged, and the supernatant was stored at −80° C. for future analysis of nitrite/nitrate (NOx^−) concentrations as described below. At the end of the perfusion, the volume of perfusate remaining in the circuit and reservoir was measured. […]
The perfusate NOx^− […] was calculated for each collection time by multiplying the perfusate concentration of NOx^− at that sample collection time by the volume of the system (perfusion circuit+reservoir) at the sample collection time plus the amount of NOx^− removed with all previous samples. The rate of NOx^− production was determined from the slope of a linear regression line fit to the amount of NOx^− in the perfusate versus time for the first 60 minutes of the collection period.

[2] = Plasma amino acid measurements; format: in vivo, piglets; conditions: for Plasma Citrulline: mean ± SEM
Method: On the day of hemodynamic measurements and/or lung perfusion study, for control and both L-citrulline treated and untreated chronic hypoxic animals, blood was drawn prior to starting the study and the plasma frozen at -80 degrees for later determination of amino acid levels. For the L-citrulline treated hypoxic animals, the time of obtaining the blood sample was approximately 12 hours after the last dose of L-citrulline so was a trough level. In some of the L-citrulline treated animals (n=3), after blood sampling for a trough level, a dose of L-citrulline was given via nasogastric tube. Following this dose, blood samples were drawn every 30 minutes for 90 minutes (the length of the in vivo studies). All samples were spun, the plasma collected and frozen at -80 degrees for amino acid analysis. Concentrations of plasma citrulline and arginine were determined by amino-acid analysis on protein-free extracts. Amino acids were separated by cation-exchange chromatography using a Hitachi […] amino acid analyzer (Hitachi USA, San Jose, Calif., United States of America). Calibration of the analyzer was performed before testing of piglet samples.

NC(=O)NCCC[C@H](N)C(=O)O [L-citrulline]
pulmonary artery pressure vs untreated hypoxic animals ([1]; FIG. 3, p-value of 0.01, not different from normoxic controls (p=0.08)): significantly lower
calculated pulmonary vascular resistance ([1]; FIG. 4, L-citrulline treated hypoxic animals, significantly lower than untreated hypoxic (p-value of 0.001)): 0.071±0.003
development of pulmonary hypertension ([1]; newborn piglets exposed to 10 days of chronic hypoxia, oral supplementation): ameliorates the development of pulmonary hypertension
exhaled NO output vs untreated hypoxic animals (exhaled NO): higher
NOx- accumulation rate in lung perfusate vs untreated hypoxic animals (nitrite/nitrate (NOx-)): significantly higher
Plasma Citrulline ([2]; 90 minutes after administration of L-citrulline dose, N = 3): 219 ± 36
plasma L-citrulline level relative to untreated chronic hypoxic animals ([2]; ninety minutes after a dose, p=0.001): almost twice
plasma arginine levels vs untreated hypoxic animals ([2]; regardless of the time the sample was drawn): not higher
Plasma Citrulline ([2]; trough, approximately twelve hours after L-citrulline dose, N = 6): 161 ± 5
